Key:
[1] = tested on: females between 40-60 years of age; test: Hamilton Anxiety Rating Scale (HAM-A), clinical study; assay type: in vivo, human; conditions: Visit 2, higher score indicates more severe symptoms
Method: (§1) Approval for the study was obtained from the University of Utah Institutional Review Board (IRB). Informed consent consisted of written assent from participants. The study was conducted under U.S. Food and Drug Administration (FDA) Investigational New Drug Application #104,586. An external Data Safety and Monitoring Board vested with authority to halt the trial was established, and the study was conducted in accordance of the principles of Good Clinical Practice (GCP).
(§2) Participants were recruited through self-referral and IRB-approved advertising. Consecutive patients who met inclusion criteria were enrolled. Inclusion criteria included the following: females between 40-60 years of age. […]
(§3) At each study visit, the following rating scales were administered: the Hamilton Anxiety Rating Scale (HAM A) (Hamilton, 1969) and the Hamilton Depression Rating Scale (HAM D) (Hamilton, 1960), the California Verbal Learning Test (Delis et al., 1987) and the Rey Osterrieth Figure Test (Bennett-Levy, 1984). Adverse events we recorded at each study visit. […]

[2] = tested on: females between 40-60 years of age; test: Hamilton Depression Rating Scale (HAM-D), clinical study; assay type: in vivo, human; conditions: Visit 2, higher score indicates more severe symptoms
Method: as §1, §2, §3

[3] = tested on: frontal lobe levels of both phosphocreatine and adenosine triphosphate; conditions: chronic oral administration; cited from earlier work

C[N+](C)(C)CCOP(=O)(O)OP(=O)([O-])OC[C@H]1O[C@@H](n2ccc(N)nc2=O)[C@H](O)[C@@H]1O [CDP-Choline, cytidine-5′-diphosphocholine]
HAM-A Mean ([1]; 250 mg CDP-Choline): 1.80 | HAM-A Mean ([1]; 500 mg CDP-Choline): 1.35 | HAM-D Mean ([2]; 250 mg CDP-Choline): 1.60 | HAM-D Mean ([2]; 500 mg CDP-Choline): 1.35 | frontal lobe levels of phosphocreatine and adenosine triphosphate [3]: increase

Source: patent US10265317B2, “Combination of creatine, an omega-3 fatty acid, and citicoline” (University of Utah Research Foundation, priority 2014, dated 2019)
